Consider 1 compound from PMC5712521, “Dendrogenin A drives LXR to trigger lethal autophagy in cancers” (Nature Communications, 2017).

Assay [1] concerns SKMEL-28 cells. The experiment in a line: Cell cycle analysis by flow cytometry. The format is cell-based, human. Conditions: 5 µM DDA, 48 h. The protocol: Control and DDA-treated cells were fixed in 70% ethanol and then washed with PBS. Cells were incubated with 100 μg/ml RNase A for 30 min at 37 °C, permeabilized with 0.25% Tween-20, and stained with 50 μg/ml propidium iodide (PI) for 30 min at 37 °C. The DNA content of stained cells was analyzed by flow cytometry. The fraction of cells in sub-G1 phase was calculated using flowJo software (Ashland, Oregon). Data were obtained from 10^5 viable cells. […]
In general terms: Flow cytometry measures light scatter and fluorescence of single cells or particles in a stream.

The test system of assay [2] is KG1 tumors. Nature of the assay: Subcutaneous KG1 tumor xenograft. It is filed as in vivo, mice. The protocol:
(§1) Exponentially growing cells were harvested, washed twice in PBS then resuspended in PBS. SKMEL-28, shSKMEL-28 clones (5 × 10^6 cells) and B16F10 (3 × 10^5) cells were injected subcutaneously (s.c.) into the flank of nude mice. HL60, KG1 and shKG1-clones (5 × 10^6) were inoculated s.c. into the flanks of NOD/SCID mice. When tumors were palpable, animals (n = 10–20 mice per group, as indicated) were randomized to receive either DDA (20 mg/kg) intraperitoneally (i.p.) or 40 mg/kg by oral gavage (p.o), once a day, or vehicle solvent for the indicated time. Animals were examined daily and body weights were measured twice a week. In all experiments, tumor volume was determined by direct measurement with a caliper and was calculated using the formula (width^2 × length)/2. At the end of experiments, mice were sacrificed and tumors were excised and divided for intra-tumoral DDA quantification, immunoblotting, or immunohistochemistry analyses. […]
(§2) (n=16- 20 mice/group) engrafted with KG1 cells or HL60 cells were treated with DDA (20 mg/kg/day, i.p.) or solvent vehicle (control). Tumor growth was monitored over time and was analyzed for significance using repeated measures ANOVA (***P<0.001). The mean tumor volumes ± SEM are shown. e Average tumor weight at the end of the experiments in d. *P<0.5, **P<0.01, ANOVA. f Mean tumor volumes measured at the end of the experiments for HL60 and KG1 graf ted into NOD/SCID or NMRI-Fo x1 -nude mice treated with DDA (40 mg/kg/day, p.o. or 20 mg/kg/day, i.p.) or solvent vehicle (control) (n=10- 20 mice per group). Values represent the means ± S.E.M. (**P<0.01, ***P<0.001, ANOVA). g Histochemical analysis of the expression of LC3 and P62 in HL60 tumor sections isolated from NOD/SCID mice treated or not with DDA (20 mg/kg/day, i.p.). h Quantification of LC3 punctate cells in shCTRL and shLXRβ KG1 tumors. i Quantification of DDA levels in tumors 4 h after the final administration of DDA. j Box plot of TCGA RNA-seq data from patients with melanoma showing that LXRβ is the predominant LXR isoform expressed. […]

Assay [3] has as its target T1, human liver-X-receptor LXRβ (Homo sapiens, UniProt P55055).
T1 construct: expressed in transfected cells; host or cells: HEK293T
Nature of the assay: LXRE-luciferase gene reporter assay in HEK293T, LXRβ. The format is cell-based. To be noted: LXRβ; 10 µM 22(R)HC; read-out: IC50, inhibition of LXR-dependent luciferase activity stimulated by 22(R)HC. The text has this:
HEK293T were used for luciferase assays. Cells were transfected using the PolyEthylenImine (PEI) method with human retinoid-X receptor (RXRγ) and human liver-X-receptors (LXRα or LXRβ) with LXRE-Luc; RXRγ and human farnesoid X receptor (FXR) with EcRE-Luc; RXRγ and human steroid and xenobiotic X receptor (SXR) with DR4-Luc; RXRγ and human peroxisome proliferator activated receptors (PPARα, or PPARγ) with PPRE-Luc; RXRγ and human retinoic acid receptor (RARα) with DR1-Luc; human AHR and human ARNT with a DRE-Luc; human vitamin D receptor (VDR) with VDRE-Luc. Cells were transfected with plasmids encoding human glucocorticoid receptor (GR), progesterone receptor (PR), or androgen receptor (AR) with MMTV-Luc; or estrogen receptors (ERα and ERβ) with an ERE-Luc. The day after transfection with the luciferase reporter gene construct, cells were seeded in 12-well plates (50,000 cells per well). […] Luciferase activity was measured using the luciferase assay reagent (Promega), according to the manufacturer’s instructions. Protein concentrations were measured using the Bradford method to normalize luciferase activities. For each condition, luciferase activity was calculated from the data of three independent wells.

In assay [4] the test system is HL60 tumors. The experiment in a line: Subcutaneous HL60 tumor xenograft. It is filed as in vivo, mice. The protocol: as §1, §2

T1 sequence (P55055 whole entry): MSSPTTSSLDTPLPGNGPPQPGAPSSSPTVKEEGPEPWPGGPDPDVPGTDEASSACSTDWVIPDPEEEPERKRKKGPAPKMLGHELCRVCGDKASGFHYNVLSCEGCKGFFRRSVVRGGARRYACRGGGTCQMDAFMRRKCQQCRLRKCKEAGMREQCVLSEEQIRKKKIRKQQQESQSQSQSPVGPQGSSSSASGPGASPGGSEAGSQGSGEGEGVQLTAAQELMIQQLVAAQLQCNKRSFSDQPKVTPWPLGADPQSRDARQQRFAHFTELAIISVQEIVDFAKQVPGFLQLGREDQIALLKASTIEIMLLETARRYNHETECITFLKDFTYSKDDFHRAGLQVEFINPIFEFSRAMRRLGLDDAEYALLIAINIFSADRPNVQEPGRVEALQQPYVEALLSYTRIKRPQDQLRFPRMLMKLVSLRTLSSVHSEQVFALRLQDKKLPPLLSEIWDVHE
T1 sequence (P48443 whole entry partner): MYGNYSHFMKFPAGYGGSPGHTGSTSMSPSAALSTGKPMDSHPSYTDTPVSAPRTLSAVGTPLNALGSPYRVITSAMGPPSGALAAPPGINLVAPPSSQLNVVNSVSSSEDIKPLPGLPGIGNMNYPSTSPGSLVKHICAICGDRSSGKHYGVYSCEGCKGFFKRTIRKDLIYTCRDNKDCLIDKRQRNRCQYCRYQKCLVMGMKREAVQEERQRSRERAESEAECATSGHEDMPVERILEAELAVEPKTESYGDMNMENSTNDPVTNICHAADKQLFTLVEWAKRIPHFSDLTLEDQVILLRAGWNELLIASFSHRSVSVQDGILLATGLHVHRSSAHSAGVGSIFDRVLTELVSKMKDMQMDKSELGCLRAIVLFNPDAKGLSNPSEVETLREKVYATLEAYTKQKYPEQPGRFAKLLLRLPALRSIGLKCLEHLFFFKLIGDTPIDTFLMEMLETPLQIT

Take `CC(C)CCC[C@@H](C)[C@H]1CC[C@H]2[C@@H]3C[C@@H](NCCc4cnc[nH]4)[C@@]4(O)C[C@@H](O)CC[C@]4(C)[C@H]3CC[C@]12C` [DDA, Dendrogenin A]: the “Cell cycle distribution: G0/G1” value in assay [1] is given as 51.80%. Besides, in assay [1], the “Cell cycle distribution: G2/M” value is given as 4.93%. In addition, the “Cell cycle distribution: S” value in assay [1] worked out at 8.99%. The “Cell cycle distribution: Sub G0/G1” value in assay [1] was determined as 34.28%. Also, the “Tumor volume at the end of the experiment” value came to 618±55 mm3 in assay [2] (NOD/SCID mice, DDA i.p. 20mg/kg/d (control 1249±137)); 400±68 mm3 in assay [2] (NOD/SCID mice, DDA p.o. 40mg/kg/d (control 1249±137)); 443±62 mm3 in assay [2] (mice, DDA i.p. 20mg/kg/d (control 1134±389)); 203±72 mm3 in assay [4] (NMRI-Fox1-nude mice, DDA i.p. 20mg/kg/d (control 726±81)); 880±101 mm3 in assay [4] (NOD/SCID mice, DDA i.p. 20mg/kg/d (control 2348±204)); 812±66 mm3 in assay [4] (NOD/SCID mice, DDA p.o. 40mg/kg/d (control 2348±204)). Besides, the IC50 in assay [3] came out at 76 ± 12 nM.

In general, IC50 refers to the concentration needed to halve the response being measured.
